Entries after “also recorded” stand apart in the source; their conditions may differ.
What was measured:
Arabidopsis plants [1] = assay: Foliar spray application, herbicidal activity; type: in vivo; settings: 2 mL spray, 5 mM active ingredient, 0.02% (v/v) Tween 20, pH 6.7
Description: The inventors tested a range of compounds for their potential herbicidal activity. These consisted of several nonhydrolysable ATP analogues as well as nonhydrolysable analogues of GTP, another nucleotide triphosphate. Arabidopsis plants were grown hydroponically for 2 weeks as described in Example 6B. These plants, still attached to the polyurethane foam discs, were then transferred to phytatrays that contained sand. Plants grown under high humidity conditions, achieved in these enclosed phytatrays, tend to have poor or no development of the waxy cuticle and so are ideal for spray application of solutions with the aid of common surfactants like Tween 20. The plants in each tray were sprayed with 2 mL of an aqueous solution adjusted to pH 6.7 with KOH and containing 5 mM active ingredient and 0.02% (v/v) Tween 20. Control plants were sprayed with the same solution containing only Tween 20 but no active ingredient.

[2] = tested on: Black Mexican sweet corn cells; assay: Cell viability of corn suspension cells; type: cell-based, Zea mays; settings: 1 mM ATP, 1 mM AMP-PCP, 100 units/mL apyrase, 200 units/mL hexokinase; 100 mM glucose in culture
[3] = tested on: Arabidopsis cell suspension cultures; assay: 2-D DIGE protein spot abundance, AMP-PCP treatment; type: cell-based; settings: 50 μM AMP-PCP vs water, 72 hours
tobacco plants = assay: Foliar spray on soil-grown tobacco plants; settings: 5 mM in 0.02% Tween 20, 2 mL spray, three days after treatment
[4] = tested on: Tobacco (Nicotiana tabacum), Arabidopsis, and bean (Phaseolus vulgaris) plants; assay: Leaf infiltration of extracellular ATP depletion systems, whole plants; type: in vivo; settings: 0.5 units/μL apyrase, 1.85 units/μL hexokinase plus 100 mM glucose, 1-5 mM AMP-PCP (pH 6.5); ATP (pH 6.5)
Description: (§1) Tobacco (Nicotiana tabacum), Arabidopsis, and bean (Phaseolus vulgaris) plants were sown in soil and raised in a growth cabinet with a 16-hour photoperiod at 20° C. and 8 hours of darkness at 15° C. The relative humidity was maintained at 60% and the photon flux density was 250 μmolm^−2 s^−1. […] Only the cotyledons of bean plants were treated. The abaxial surface of a small zone of leaf tissue was treated by infiltrating the apoplast with the solution using a syringe and hypodermic needle. The three test solutions had the following concentrations of either: 0.5 units/μL apyrase, 1.85 units/μL hexokinase plus 100 mM glucose, or 1-5 mM AMP-PCP (pH 6.5).
The concentrations used were the same as defined above unless stated otherwise.

[5] = tested on: Arabidopsis thaliana cell suspension cultures; type: cell-based; settings: for cell viability / cell death, in words: ADP 1 mM, AMP 1 mM, ATP 1 mM, glucose-6-phosphate 100 mM, boiled apyrase 50 units/ml, boiled hexokinase 200 units/ml with 100 mM glucose
Description: A. thaliana cell cultures were grown as described in example 1. Aliquots of the cell suspension (1.5 mL) were treated with a final concentration of 0, 20, 50, or 100 units/mL of apyrase. […] The dead cells had become buoyant and adhered to the walls of the vials, forming a ring just above the edge of the swirling medium. The ring of cells was sometimes dislodged and fell into the medium, resulting in apyrase-treated cultures having flakes of dead cells at the bottom of the vials.
To quantify the effect of apyrase on cell viability, the ability of the cells to grow and multiply subsequent to treatment was measured after diluting the cultures by over 30 times in fresh medium not containing any additives. This was achieved by transferring the cells treated for 3 days to 50 mL of fresh growth medium and allowing them to grow for a further 4 days. At the end of this period, triplicate 1 mL aliquots were sampled from the cultures and the volume of the cells was measured and expressed as a percentage of the culture volume. The method used to determine the packed cell volume was as follows: 1 mL cell culture aliquots were placed in 1.5 mL microfuge tubes and the cells gently compacted by centrifuging (1000 rpm., 10 minutes) in a swing-out rotor (Grundrotor 11030; Sigma laborzentrifugen GmbH, Oestrode, Germany). The level of the cells was marked on the wall of the tube and the volume of cells determined by measuring the volume of water needed to fill the tube to the marked level. The packed cell volume was expressed as the volume occupied by cells as a percentage of 1000 μL.
In each case the error bars represent the standard deviation.

tobacco leaves = assay: Leaf infiltration, tobacco; type: in vivo, Nicotiana tabacum; settings: for local tissue death after infiltration of tobacco leaves: 1 mM AMP-PCP, 1 mM ATP, apyrase, hexokinase plus glucose; for state of tobacco plant after treatment of a leaf: 5 mM AMP-PCP or equivalent amount of ATP, after 4 days
Description: as §1

[6] = tested on: Arabidopsis cell cultures; assay: MTT assay of cell viability after elicitor or bacteria with or without ATP; type: cell-based; settings: 1 mM ATP, 24 hours
Arabidopsis plants [7] = settings: cited from earlier work
[8] = tested on: Arabidopsis cell cultures; assay: H2O2 accumulation after elicitor treatment; type: cell-based; settings: exogenous ATP with elicitor

Nc1ncnc2c1ncn2[C@@H]1O[C@H](COP(=O)(O)OP(=O)(O)O)[C@@H](O)[C@H]1O [ADP, adenosine 5′-diphosphate]
Effects on Arabidopsis plants after foliar application (Arabidopsis plants [1]): not phytotoxic and None

Nc1ncnc2c1ncn2C1OC(COP(=O)(O)OP(=O)(O)CP(=O)(O)O)C(O)C1O (stereo not drawn) [AMP-PCP, β,γ-methyleneadenosine 5′-triphosphate]
viability of corn cells [2]: caused significant cell death
Ratio, spot 613 H84453 Probable heat shock protein [imported] [3]: −1.26
Ratio, spot 690 gi30693102 NADH dehydrogenase (ubiquinone), mitochondrial [3]: −1.44
Ratio, spot 703 Luminal binding protein 1 precursor (BiP-1) [3]: 1.29
Ratio, spot 707 Luminal binding protein 1 precursor (BiP-1) [3]: 1.45
Ratio, spot 740 Heat shock cognate 70 kDa protein 2 (hsc70-2) [3]: −1.22
Ratio, spot 778 gi1072473 dnaK-type molecular chaperone hsc70.1 [3]: 1.15
Ratio, spot 795 gi15232682 Heat shock protein hsc70-3 [3]: 1.2
Ratio, spot 906 gi15219234 ATPase 70 kDa subunit-related protein [3]: 1.19
Ratio, spot 1063 gi30687521 Putative protein disulfide isomerase [3]: 1.24
Ratio, spot 1069 gi15232827 Threonine ammonia lyase [3]: −1.23
Ratio, spot 1074 gi11094242 Cytosolic phosphoglucose isomerase [3]: 1.2
Ratio, spot 1098 gi288063 Ketol-acid reductoisomerase [3]: −1.12
Ratio, spot 1135 gi9082270 Alanine aminotransferase [3]: 1.2
Ratio, spot 1148 gi21593375 Unknown protein [3]: 1.24
Ratio, spot 1155 gi30684419 Dihydrolipoamide dehydrogenase 2, mitochondrial [3]: 1.34
Ratio, spot 1187 gi21954071 Putative alanine aminotransferase [3]: 1.41
Ratio, spot 1196 gi14916970 ATP synthase alpha chain, mitochondrial [3]: 1.31
Ratio, spot 1200 gi15241168 Tubulin alpha-3/alpha-5 chain (TUA3) [3]: 1.35
Ratio, spot 1205 gi2493132 Vacuolar ATP synthase subunit B isoform 2 [3]: 1.24
Ratio, spot 1229 H+-transporting ATP synthase beta chain [3]: 1.4
Ratio, spot 1241 Enolase (2-phospho-D-glycerate hydrolase) [3]: 1.39
Ratio, spot 1245 H+-transporting ATP synthase beta chain [3]: 1.23
Ratio, spot 1254 gi15227559 Tubulin beta-7 chain [3]: −1.2
Ratio, spot 1257 Enolase (2-phospho-D-glycerate hydrolase) [3]: 1.51
Ratio, spot 1264 Enolase (2-phospho-D-glycerate hydrolase) [3]: 1.32
Ratio, spot 1281 gi15234516 Putative thioredoxin [3]: 1.23
Ratio, spot 1282 Adenosylhomocysteinase [3]: 1.46
Ratio, spot 1292 Adenosylhomocysteinase [3]: 1.29
Ratio, spot 1439 gi14594802 Translation initiation factor elf-4A1 [3]: 1.84
Ratio, spot 1460 gi7485313 Hypothetical protein F10M10.120 [3]: −1.1
Ratio, spot 1481 gi15234354 S-adenosylmethionine synthetase 2 [3]: −1.3
Ratio, spot 1497 gi21536853 Putative phosphoglycerate kinase [3]: 1.47
Ratio, spot 1516 Putative S-adenosylmethionine synthetase [3]: 1.22
Ratio, spot 1649 gi21593388 12-oxophytodienoate reductase (OPR1) [3]: −1.22
Ratio, spot 1718 gi15229530 Glutamine synthetase-related protein [3]: −1.13
Ratio, spot 1748 gi21593240 GAPDH C subunit (GapC) [3]: 1.21
Ratio, spot 1817 gi3435286 GAPDH C subunit (GapC) [3]: 1.13
Ratio, spot 1868 gi15226185 Putative fructose-bisphosphate aldolase [3]: −1.35
Ratio, spot 1892 gi14334740 Putative fructose-bisphosphate aldolase [3]: −1.71
Ratio, spot 1920 gi15237888 Putative NADP-dependent oxidoreductase (P1) [3]: −1.45
Ratio, spot 1943 gi25283601 Malate dehydrogenase [EC 1.1.1.37], chloroplast [3]: 1.22
Ratio, spot 1959 Malate dehydrogenase [NAD], mitochondrial [3]: −1.11
Ratio, spot 1964 gi15232468 Malate dehydrogenase [NAD], mitochondrial [3]: 1.21
Ratio, spot 2221 gi21593226 Putative esterase D [3]: −1.24
Ratio, spot 2282 gi15228883 Expressed protein [3]: −1.74
Ratio, spot 2370 gi18390982 ATP-dependent Clp protease proteolytic subunit [3]: 1.38
Ratio, spot 2422 gi20260140 Multicatalytic endopeptidase complex alpha subunit [3]: −1.21
Ratio, spot 2443 L-ascorbate peroxidase 1, cytosolic (APX1) [3]: −2.51
Ratio, spot 2552 L-ascorbate peroxidase 1, cytosolic (APX1) [3]: −1.47
Ratio, spot 2562 gi15224582 Putative glutathione S-transferase [3]: 1.4
Ratio, spot 2605 gi15239652 Putative quinone reductase [3]: 1.38
Ratio, spot 2626 gi15228805 20S proteasome beta subunit D (PBD1) [3]: 1.14
Ratio, spot 2690 gi20138157 Phospholipid hydroperoxide glutathione peroxidase [3]: 1.21
Ratio, spot 2734 gi18412406 Expressed protein [3]: −1.93
Ratio, spot 2832 gi30697295 Actin depolymerizing factor 3-like prptein [3]: −1.29
Ratio, spot 2842 gi15218373 40S ribosomal protein S12 (RPS12A) [3]: −1.3
state of tobacco plants (tobacco plants): started to die
necrotic lesions after local leaf infiltration [4]: development of necrotic lesions in the area where the application was made within 2 days of treatment; also recorded: localised necrotic lesions
cell viability with increasing concentration (dose-response), in words ([5]; apyrase 0-100 units/mL, hexokinase 0-200 units/mL with 100 mM glucose, AMP-PCP 0-1.5 mM): loss in cell viability
local tissue death after infiltration of tobacco leaves (tobacco leaves): caused localised tissue death
state of tobacco plant after treatment of a leaf (tobacco leaves): not only had the treated leaf died (white arrowhead), but so too had portions of some upper, untreated leaves

Nc1ncnc2c1ncn2[C@@H]1O[C@H](COP(=O)(O)OP(=O)(O)NP(=O)(O)O)[C@@H](O)[C@H]1O [AMP-PNP, adenosine 5′-(β,γ-imido)triphosphate]
Effects on Arabidopsis plants after foliar application (Arabidopsis plants [1]): had herbicidal activity; also recorded: Phytotoxic

Nc1ncnc2c1ncn2[C@@H]1O[C@H](COP(=O)(O)O)[C@@H](O)[C@H]1O [AMP]
cell viability / cell death, in words [5]: did not result in any change in cell viability

Nc1ncnc2c1ncn2[C@@H]1O[C@H](COP(=O)(O)OP(=O)(O)OP(O)(O)=S)[C@@H](O)[C@H]1O [ATP-γ-S, adenosine 5′-(γ-thio)triphosphate]
Effects on Arabidopsis plants after foliar application (Arabidopsis plants [1]): had herbicidal activity; also recorded: Phytotoxic

Nc1ncnc2c1ncn2[C@@H]1O[C@H](COP(=O)(O)OP(=O)(O)OP(=O)(O)O)[C@@H](O)[C@H]1O [ATP]
effect of exogenous ATP on reduction in cell viability caused by Ps. syringae or Fusarium elicitor [6]: substantially negated
viability of corn cells [2]: did not affect the viability of the cells
Effects on Arabidopsis plants after foliar application (Arabidopsis plants [1]): remained healthy and None
state of tobacco plants (tobacco plants): unaffected
necrotic lesions after local leaf infiltration [4]: did not result in cell death
cell viability / cell death, in words [5]: did not cause death of treated cells
resistance of plants to xenobiotics (Arabidopsis plants [7]; adding exogenous ATP): decreased the resistance of plants to xenobiotics
local tissue death after infiltration of tobacco leaves (tobacco leaves): did not
state of tobacco plant after treatment of a leaf (tobacco leaves): remained entirely healthy
H2O2 accumulation [8]: failed to prevent H2O2 accumulation

Nc1nc2c(ncn2[C@@H]2O[C@H](COP(=O)(O)OP(=O)(O)OP(=O)(O)O)[C@@H](O)[C@H]2O)c(=O)[nH]1 [GTP, guanosine 5′-triphosphate]
Effects on Arabidopsis plants after foliar application (Arabidopsis plants [1]): does not and None

Nc1nc2c(ncn2[C@@H]2O[C@H](COP(=O)(O)OP(=O)(O)OP(O)(O)=S)[C@@H](O)[C@H]2O)c(=O)[nH]1 [GTP-γ-S, guanosine 5′-(γ-thio)triphosphate]
Effects on Arabidopsis plants after foliar application (Arabidopsis plants [1]): has herbicidal properties; also recorded: Phytotoxic

[Na+].[Na+].[Na+].[O-]P([O-])([O-])=S [NaPO3S, sodium thiophosphate]
Effects on Arabidopsis plants after foliar application (Arabidopsis plants [1]): did not cause death and None

O=C[C@H](O)[C@@H](O)[C@H](O)[C@H](O)COP(=O)(O)O [glucose-6-phosphate]
cell viability / cell death, in words [5]: did not affect cell viability

Nc1ncnc2c1ncn2[C@@H]1O[C@H](COP(=O)(O)CP(=O)(O)O)[C@@H](O)[C@H]1O [α,β-methyladenosine 5′ diphosphate]
cycloheximide-resistance of plants over-expressing ecto-ATPase (Arabidopsis plants [7]; co-administered with cycloheximide): lost their cycloheximide-resistance
